BindingDB's records for doi:10.1016/j.bmcl.2012.06.023 (University of Siena, 2012)

The compounds below were run against Subtilisin-like protease 1 (Plasmodium falciparum, UniProt O61142) (assay: Inhibition of Plasmodium falciparum SUB1 by fluorimetric assay).
Subtilisin-like protease 1, sequence (O61142 220-690 limits assumed): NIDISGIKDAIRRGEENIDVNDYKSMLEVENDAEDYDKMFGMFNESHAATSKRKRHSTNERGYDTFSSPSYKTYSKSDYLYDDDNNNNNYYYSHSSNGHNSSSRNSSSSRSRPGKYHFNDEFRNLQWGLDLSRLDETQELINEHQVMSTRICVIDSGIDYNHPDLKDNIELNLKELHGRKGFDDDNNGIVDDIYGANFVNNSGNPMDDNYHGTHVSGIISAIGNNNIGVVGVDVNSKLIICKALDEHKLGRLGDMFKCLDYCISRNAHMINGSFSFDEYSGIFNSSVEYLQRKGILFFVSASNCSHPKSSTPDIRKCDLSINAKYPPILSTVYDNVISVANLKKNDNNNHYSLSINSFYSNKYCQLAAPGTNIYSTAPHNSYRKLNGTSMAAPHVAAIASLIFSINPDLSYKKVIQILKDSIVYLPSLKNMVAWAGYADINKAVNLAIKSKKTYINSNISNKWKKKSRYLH

IC50	SMILES
> 50 µM	O=[N+]([O-])c1ccc(CN=Nc2nc3ccccc3[nH]2)cc1
20 µM	COc1ccc2nc(C)cc(N=NCc3ccc([N+](=O)[O-])cc3)c2c1 [TCMDC-123970]
20 µM	Cc1cc(N=NCc2ccc([N+](=O)[O-])cc2)c2cc3c(cc2n1)OCO3

Continued, compound first:

SMILES	IC50
Cc1cc(N=NCc2ccccc2[N+](=O)[O-])c2cc3c(cc2n1)OCO3	40 µM
Cc1cc(N=NCc2ccc(C#N)cc2)c2cc3c(cc2n1)OCO3	40 µM
O=[N+]([O-])c1ccc(CN=Nc2c3c(nc4ccccc24)CCCC3)cc1	> 50 µM
